# Measured values reported in patent US20180044343A1, “BICYCLIC IMIDAZOLO DERIVATIVE” (Sumitomo Dainippon Pharma Co., Ltd., priority 2015, published 2018).
# Target: PDE1B (Homo sapiens, UniProt Q01064)
# Test: In vitro HTRF PDE1 inhibition assay (PDE1B)
# Format: biochemical
# Details: not given
# PDE1B, sequence (Q01064 whole entry): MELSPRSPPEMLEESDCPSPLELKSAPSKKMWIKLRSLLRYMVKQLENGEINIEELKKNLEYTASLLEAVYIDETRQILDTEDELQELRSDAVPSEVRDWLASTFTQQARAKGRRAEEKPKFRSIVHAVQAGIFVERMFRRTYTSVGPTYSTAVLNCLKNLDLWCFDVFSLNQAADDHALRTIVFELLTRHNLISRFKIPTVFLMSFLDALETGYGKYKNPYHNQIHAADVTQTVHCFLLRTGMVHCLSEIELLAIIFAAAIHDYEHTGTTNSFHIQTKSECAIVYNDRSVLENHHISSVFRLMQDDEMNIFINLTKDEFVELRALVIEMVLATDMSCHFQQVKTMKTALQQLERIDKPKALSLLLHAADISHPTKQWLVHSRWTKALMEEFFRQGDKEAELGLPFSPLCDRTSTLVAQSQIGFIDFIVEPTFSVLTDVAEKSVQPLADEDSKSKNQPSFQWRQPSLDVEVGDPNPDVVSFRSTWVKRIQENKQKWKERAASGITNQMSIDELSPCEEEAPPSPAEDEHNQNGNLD
row,SMILES,IC50
1,"Cc1ccc([C@H]2CCCN2c2nn3c(C(C)C)ncc3c(=O)n2C)cn1 [Example 216, 3-Methyl-2-[(2R)-2-(6-methylpyridin-3-yl)pyrrolidin-1-yl]-7-(propan-2-yl)imidazo[5,1-f][1,2,4]triazin-4(3H)-one]",< 1 µM

# Same assay, conditions: in vitro PDE1B HTRF Assay; read-out: IC50
row,SMILES,IC50
1,"CCn1c(OCC2CCC(F)(F)CC2)nn2c(C3CCOCC3)ncc2c1=S [Example 123, 2-[(4,4-Difluorocyclohexyl)methoxy]-3-ethyl-7-(tetrahydro-2H-pyran-4-yl)imidazo[5,1-f][1,2,4]triazin-4(3H)-thione]",< 1 µM
2,Cn1c(NCc2ccccn2)nn2c(C3CCOCC3)ncc2c1=O [Example 181],< 1 µM
3,Cn1c(OCc2ccc(-c3ccc(F)cc3)cc2)nn2c(C3CCOCC3)ncc2c1=O [Example 51],1 to 10 µM
4,"Cn1c(OCc2ccc(F)cc2)nn2c(C3CCOCC3)nc(Cl)c2c1=O [Example 117, 5-Chloro-2-[(4-fluorobenzyl)oxy]-3-methyl-7-(tetrahydro-2H-pyran-4-yl)imidazo[5,1-f][1,2,4]triazin-4(3H)-one]",< 1 µM
5,Cc1cccnc1CNc1nn2c(C(C)C)ncc2c(=O)n1C [Example 157],< 1 µM
6,Cn1c(OCc2cccc(C#N)c2)nn2c(C3CCOCC3)ncc2c1=O [Example 29],1 to 10 µM
7,"Cn1c(CN2Cc3ccccc3C2=O)nn2c(C3CCCC3)ncc2c1=O [Example 231, 7-Cyclopentyl-3-methyl-2-[(1-oxo-1,3-dihydro-2H-isoindol-2-yl)methyl]imidazo[5,1-f][1,2,4]triazin-4(3H)-one]",< 1 µM
8,COC[C@H]1CC[C@H](Oc2nn3c(C4CCOCC4)ncc3c(=O)n2C)CC1 [Example 316],< 1 µM
9,CCn1c(OCC2(C)COC2)nn2c(C3CCOCC3)ncc2c1=O [Example 58],< 1 µM
10,COc1nn2c(C3CCOCC3)ncc2c(=O)n1CC1CCCCC1 [Example 275],< 1 µM
11,CC(C)Oc1nn2c(C3CCOCC3)ncc2c(=O)n1CC1CCC(F)(F)CC1 [Example 103],< 1 µM
12,CC(C)c1ccc([C@H]2CCCN2c2nn3c(C(C)C)ncc3c(=O)n2C)cc1 [Example 166],< 1 µM
13,CCn1c(OCC2CCC2)nn2c(C3CCOCC3)ncc2c1=O [Example 86],< 1 µM
14,CCn1c(OCC2(C(F)(F)F)CCCC2)nn2c(C3CCOCC3)ncc2c1=O [Example 296],< 1 µM
15,"COc1ccc(CCc2nn3c(C4CCOCC4)ncc3c(=O)n2C)cc1 [Example 243, 2-[2-(4-Methoxyphenyl)ethyl]-3-methyl-7-(tetrahydro-2H-pyran-4-yl)imidazo[5,1-f][1,2,4]triazin-4(3H)-one]",< 1 µM
16,"O=c1[nH]c(N2CCC[C@@H]2c2ccccc2)nn2c(C3CCOCC3)ncc12 [Example 124, 2-[(2R)-2-phenylpyrrolidin-1-yl]-7-(tetrahydro-2H-pyran-4-yl)imidazo[5,1-f][1,2,4]triazin-4(3H)-one]",< 1 µM
17,Cc1ccnc(CNc2nn3c(C(C)C)ncc3c(=O)n2C)c1 [Example 156],< 1 µM
18,CC(C)c1ncc2c(=O)n(C)c(NCc3ccc(F)cn3)nn12 [Example 154],1 to 10 µM
19,"Cn1c(O[C@H]2CC[C@H](C)CC2)nn2c(C3CCOCC3)ncc2c1=O [Example 254, 3-Methyl-2-[(trans-4-methylcyclohexyl)oxy]-7-(tetrahydro-2H-pyran-4-yl)imidazo[5,1-f][1,2,4]triazin-4(3H)-one]",< 1 µM
20,CC(C)c1ncc2c(=O)n(C)c(NCc3cccnc3)nn12 [Example 152],< 1 µM
21,CCn1c(OCC(C)C)nn2c(C3CCOCC3)ncc2c1=O [Example 55],< 1 µM
22,CCCn1c(N2CCC[C@@H]2c2ccc(Cl)cc2)nn2c(C(C)C)ncc2c1=O [Example 179],< 1 µM
23,COc1nn2c(C(C)OC)ncc2c(=O)n1CC1CCC(F)(F)CC1 (centres unmarked) [Example 114],< 1 µM
24,Cn1c(OCCCc2ccc(F)cn2)nn2c(C3CCOCC3)ncc2c1=O [Example 41],< 1 µM

row,SMILES,IC50
1,Cn1c(OCCCc2ccccn2)nn2c(C3CCOCC3)ncc2c1=O [Example 31],< 1 µM
2,CC(C)c1ncc2c(=O)n(C)c(OCc3ccccn3)nn12 [Example 12],< 1 µM
3,Cn1c(OCc2ccc(Cl)cc2)nn2c(C3CCOCC3)ncc2c1=O [Example 28],< 1 µM
4,"O=c1c2cnc(C3CCOCC3)n2nc(N2CCCC2)n1CC1CC1 [Example 206, 3-(Cyclopropylmethyl)-2-(pyrrolidin-1-yl)-7-(tetrahydro-2H-pyran-4-yl)imidazo[5,1-f][1,2,4]triazin-4(3H)-one]",1 to 10 µM
5,"COc1ccc(CNc2nn3c(C(C)C)ncc3c(=O)n2C)nc1 [Example 135, 2-{[(5-Methoxypyridin-2-yl)methyl]amino}-3-methyl-7-(propan-2-yl)imidazo[5,1-f][1,2,4]triazin-4(3H)-one]",< 1 µM
6,CCn1c(OCCCc2ccncc2)nn2c(C3CCOCC3)ncc2c1=O [Example 61],< 1 µM
7,Cn1c(OC2CCCC2)nn2c(C3CCOCC3)ncc2c1=O [Example 299],< 1 µM
8,Cn1c(CN2CCCc3cc(Cl)ccc32)nn2c(C3CCCC3)ncc2c1=O [Example 233],< 1 µM
9,Cn1c(OC[C@H]2CC[C@H](CO)CC2)nn2c(C3CCOCC3)ncc2c1=O [Example 290],< 1 µM
10,CCn1c(O[C@H]2CC[C@@H](COC)CC2)nn2c(C3CCOCC3)ncc2c1=O [Example 319],< 1 µM
11,Cn1c(O[C@H]2CC[C@@H](C(F)(F)F)CC2)nn2c(C3CCOCC3)ncc2c1=O [Example 307],< 1 µM
12,COc1ccc(CNc2nn3c(C(C)C)ncc3c(=O)n2C)cc1 [Example 140],< 1 µM
13,"CC(C)c1ncc2c(=O)[nH]c(N3CCC[C@@H]3c3ccc(Cl)cc3)nn12 [Example 125, 2-[(2R)-2-(4-chlorophenyl)pyrrolidin-1-yl]-7-(propan-2-yl)imidazo[5,1-f][1,2,4]triazin-4(3H)-one]",< 1 µM
14,Cn1c(COc2ccc(F)cc2)nn2c(C3CCCC3)ncc2c1=O [Example 228],1 to 10 µM
15,CCn1c(OCCc2ccc(-c3ccccc3)cc2)nn2c(C3CCOCC3)ncc2c1=O [Example 77],< 1 µM
16,COC[C@H]1CC[C@H](COc2nn3c(C4CCOCC4)ncc3c(=O)n2C)CC1 [Example 286],< 1 µM
17,CCn1c(OC[C@H]2CC[C@@H](C(F)(F)F)CC2)nn2c(C3CCOCC3)ncc2c1=O [Example 252],< 1 µM
18,"CCn1c(COc2ccc(F)cc2)nn2c(C3CCOCC3)ncc2c1=O [Example 259, 3-Ethyl-2-[(4-fluorophenoxy)methyl]-7-(tetrahydro-2H-pyran-4-yl)imidazo[5,1-f][1,2,4]triazin-4(3H)-one]",< 1 µM
19,CCn1c(NCCc2ccccn2)nn2c(C(C)C)ncc2c1=O [Example 177],< 1 µM
20,CCn1c(OC(C)C2CCC(F)(F)CC2)nn2c(C3CCOCC3)ncc2c1=O (centres unmarked) [Example 92],< 1 µM
21,CCn1c(NCc2ccc(C)cn2)nn2c(C(C)C)ncc2c1=O [Example 170],< 1 µM
22,CCn1c(OCC2(c3ccccc3)CC2)nn2c(C3CCOCC3)ncc2c1=O [Example 82],< 1 µM
23,Cc1ccc(CNc2nn3c(C4CCC4)ncc3c(=O)n2C)nc1 [Example 204],< 1 µM
24,CC(C)COc1nn2c(C(C)C)ncc2c(=O)n1C [Example 11],< 1 µM

row,SMILES,IC50
1,COc1nn2c(C3CCOCC3)ncc2c(=O)n1Cc1ccncc1 [Example 281],1 to 10 µM
2,Cc1ccc(CNc2nn3c(C(C)C)ncc3c(=O)n2C)nc1 [Example 153],< 1 µM
3,Cc1ccc(OCc2nn3c(C4CCCC4)ncc3c(=O)n2C)cc1 [Example 227],1 to 10 µM
4,CCn1c(OC(C)c2ccc(F)cc2)nn2c(C3CCOCC3)ncc2c1=O (centres unmarked) [Example 69],< 1 µM
5,CCn1c(OCc2ccc(-c3ccc(OC)cc3)cc2)nn2c(C3CCOCC3)ncc2c1=O [Example 83],< 1 µM
6,CC(C)Cn1c(OCC2CCC(F)(F)CC2)nn2c(C3CCOCC3)ncc2c1=O [Example 96],< 1 µM
7,Cn1c(OCCC2CCC(F)(F)CC2)nn2c(C3CCOCC3)ncc2c1=O [Example 39],< 1 µM
8,COc1nn2c(C3CCOCC3)ncc2c(=O)n1Cc1ccccc1 [Example 107],< 1 µM
9,COCCCN1CCN(c2nn3c(C4CCOCC4)ncc3c(=O)n2C)CC1 [Example 196],< 1 µM
10,CCn1c(N2CCC[C@@H]2c2ccc(Cl)cc2)nn2c(C(C)C)ncc2c1=O [Example 178],< 1 µM
11,CC(Oc1nn2c(C3CCOCC3)ncc2c(=O)n1C)c1ccc(-c2ccccn2)cc1 (centres unmarked) [Example 52],< 1 µM
12,O=c1c2cnc(C3CCOCC3)n2nc(OCC2CCC(F)(F)CC2)n1CC1CC1 [Example 100],< 1 µM
13,CCn1c(OCCCc2ccccn2)nn2c(C3CCOCC3)nc(Cl)c2c1=O [Example 118],< 1 µM
14,O=c1c2cnc(C3CCOCC3)n2nc(N2CCCC2)n1CC1CCOCC1 [Example 214],10 to 100 µM
15,CC(C)c1ncc2c(=O)n(C)c(N[C@H]3CCCc4ccccc43)nn12 [Example 145],< 1 µM
16,O=c1c2cnc(C3CCOCC3)n2nc(OCc2ccc(F)cc2)n1CC1CC1 [Example 99],< 1 µM
17,"CC(C)c1ncc2c(=O)n(C)c(CN(C)c3ccc(C(F)(F)F)cc3)nn12 [Example 230, 3-Methyl-2-({methyl[4-(trifluoromethyl)phenyl]amino}methyl)-7-(propan-2-yl)imidazo[5,1-f][1,2,4]triazin-4(3H)-one]",< 1 µM
18,CCn1c(OCCc2cccc(F)c2)nn2c(C3CCOCC3)ncc2c1=O [Example 75],< 1 µM
19,COCCC1CCN(c2nn3c(C4CCOCC4)ncc3c(=O)n2C)CC1 [Example 193],< 1 µM
20,"Cc1ccc([C@@H]2CCCN2c2nn3c(C(C)C)ncc3c(=O)n2C)cn1 [Example 217, 3-Methyl-2-[(2S)-2-(6-methylpyridin-3-yl)pyrrolidin-1-yl]-7-(propan-2-yl)imidazo[5,1-f][1,2,4]triazin-4(3H)-one]",1 to 10 µM
21,CC(C)c1ncc2c(=O)n(C)c(NC3(c4ccccn4)CC3)nn12 [Example 161],< 1 µM
22,"Cc1ccc(COc2nn3c(C(C)C)ncc3c(=O)n2C)nc1 [Example 2, 3-Methyl-2-[(5-methylpyridin-2-yl)methoxy]-7-(propan-2-yl)imidazo[5,1-f][1,2,4]triazin-4(3H)-one]",< 1 µM
